Test results: US20250152564A1, “PROPYLENE KETONE-CONTAINING BIOINHIBITOR, PREPARATION METHOD THEREFOR, AND USE THEREOF” (SHANGHAI HANSOH BIOMEDICAL CO., LTD., priority 2022, published 2025)

Key:
[1] = biological target: FGFR1 (Homo sapiens (Human), UniProt P11362); experiment: TR-FRET kinase inhibition assay, FGFR1; type: biochemical; settings: ATP Km concentration (30 μM)
Procedure: (§1) To measure the IC50 values of the compounds against FGFR1, FGFR2, FGFR3, FGFR4, and FGFR2 V564F at ATP Km concentrations by TR-FRET method.
(§2) TR-FRET (time-resolved fluorescence resonance energy transfer) method was used to detect the inhibitory activity of the compounds on FGFR1, FGFR2, FGFR3, FGFR4, and FGFR2 V564F kinase region fragments. The highest detection concentration of the compounds in 5 kinase experiments was 1000 nM, which was diluted in 3 folds, with a total of 11 concentrations (1000 nM to 0.017 nM). A kinase buffer (50 mM HEPES pH 7.5, 1 mM EGTA, 10 mM MgCl2, 2 mM DTT, and 0.01% Tween-20) was used to prepare 4× enzyme solution, 4× compound solutions diluted in gradient, and a 2×ATP/Peptide substrate solution. To a 384-well plate, 2.5 μL of enzyme solution and 2.5 μL of diluted […] compound solution were added, and 5 μL of 2×ATP/Peptide substrate solution was then added. After reacting at room temperature for 60 minutes for FGFR1, FGFR2, FGFR3, and FGFR2 V564F kinases, and 120 minutes for FGFR4 kinase, 10 μL of a 2× termination and detection mixed liquid prepared with 1×LANCE detection buffer with an EDTA concentration of 20 mM and a Europium-anti-phosphotyrosine (PT66) concentration of 2 nM was added to each well of the plate. After reacting at room temperature for 60 minutes for FGFR1, FGFR2, FGFR3, and FGFR4, and 30 minutes for FGFR2 V564F, the fluorescence signal value in each well of the plate was measured by a microplate reader.
(§3) 1) Inhibition rate (%): Calculation was performed on the raw data (665 nm/620 nm reading ratio) according to the following formula to obtain the inhibition rate. Inhibition rate %=[(mean value in positive control well−value in sample well)/(mean value in positive control well−mean value in negative control well)]×100, wherein the positive control well was a reaction well without a compound […], and the negative control well was a reaction wells without an enzyme.
(§4) 2) Curve fitting: Log(inhibitor) vs. response—Variable slope (four parameters) in GraphPad Prism 6 was used for fitting equation analysis of the compound concentration and the corresponding inhibition rate, and the curve was fitted to obtain the IC50 values of the compounds.

[2] = biological target: FGFR2 V564F (Homo sapiens (Human), UniProt P21802, V564F); experiment: TR-FRET kinase inhibition assay, FGFR2 V564F; type: biochemical; settings: ATP Km concentration (20 μM)
Chain of FGFR2 V564F (P21802 481-770 V564F): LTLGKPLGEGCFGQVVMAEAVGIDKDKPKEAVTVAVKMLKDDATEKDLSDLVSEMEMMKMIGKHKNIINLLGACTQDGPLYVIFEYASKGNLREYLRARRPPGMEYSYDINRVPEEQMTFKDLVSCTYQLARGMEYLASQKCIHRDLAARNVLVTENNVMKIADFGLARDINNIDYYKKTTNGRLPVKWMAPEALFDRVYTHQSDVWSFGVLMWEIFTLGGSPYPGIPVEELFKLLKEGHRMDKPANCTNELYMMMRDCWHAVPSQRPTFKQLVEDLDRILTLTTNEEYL
Procedure: as §1, §2, §3, §4

[3] = biological target: FGFR2 (Homo sapiens (Human), UniProt P21802); experiment: TR-FRET kinase inhibition assay, FGFR2; type: biochemical; settings: ATP Km concentration (30 μM)
Chain of FGFR2 (P21802 481-770): as the sequence (P21802 481-770 V564F) above, with F84V counted along it
Procedure: as §1, §2, §3, §4

[4] = system: BaF3 FGFR2-BICC1 V564F cells; experiment: CellTiter-Glo cell proliferation inhibition, BaF3 FGFR2-BICC1 V564F; type: cell-based; settings: Mus musculus, 72 h, read-out: BaF3 FGFR2-BICC1 V564F inhibitory activity IC50
Procedure: (§5) To evaluate inhibitory effects of the compounds on the proliferation of NCI-H716, SNU-16 and BaF3-FGFR2-BICC1 V564F cells by cell proliferation inhibition experiments.
(§6) CellTiter-Glo method was used to detect inhibitory effects of the compounds on the proliferation of NCI-H716, SNU-16 and BaF3 FGFR2-BICC1 V564F cells. The highest detection concentration of the compounds was 1000 nM, which was diluted in 3 folds, with a total of 9 concentrations (1000 nM to 0.15 nM). After the cells were plated at an appropriate density, compounds were added the next day and incubated for 72 h before detection using the […] detection kit.
as §3, with “(%):” for “(%): Calculation was performed on the raw data (665 nm/620 nm reading ratio) according to the following formula to obtain the inhibition rate.”
as §4

[5] = system: NCI-H716 cells; experiment: CellTiter-Glo cell proliferation inhibition, NCI-H716; type: cell-based; settings: Homo sapiens, 72 h, read-out: NCI-H716 cell proliferation inhibition rate IC50
Procedure: as §5, §6
as §3, with “(%):” for “(%): Calculation was performed on the raw data (665 nm/620 nm reading ratio) according to the following formula to obtain the inhibition rate.”
as §4

[6] = Pharmacokinetic experiment in SD rats after oral administration; type: in vivo; settings: 5 mg/kg, plasma
Procedure: To study the pharmacokinetic behavior of the compounds of the present invention in the rat body (plasma) after oral administration at a dose of 5 mg/kg using SD rats as test animals.
3 SD rats/group, male, from Shanghai Jiesijie Experimental Animal Co., Ltd., animal production license number (SCXK (Shanghai) 2013-0006 N0.311620400001794).
PO, 10% solutol HS15-0.5% CMC-Na was dissolved by ultrasound and prepared into a clear solution or homogeneous suspension.
3 SD rats/group, male; p.o. respectively at a dose of 5 mg/kg and an administration volume of 10 mL/kg after the […] were fasted overnight.
After oral administration to rats, at 0.25, 0.5, 1, 2, 4, 6, 8 and 24 hours, 0.2 mL of blood was collected from the jugular vein, placed in an EDTA-K2 test tube, centrifuged at 6000 rpm for 6 min at 4° C. to separate the plasma, which was stored at −80° C.
1) 100 μL of acetonitrile was added to 20 μL of plasma sample for pelleting, and it was mixed and centrifuged at 3500×g for 5-20 min.
2) The treated supernatant solution was taken and subjected to LC/MS/MS to analyze the concentrations of the test compounds. LC/MS/MS analysis instrument: AB Sciex API 4000 Qtrap.
• Liquid phase conditions: Shimadzu LC-20AD pump • Chromatographic column: Waters Xbridge C18 5 μm, 4.6×50 mm mobile phase: liquid A was 0.1% aqueous formic acid solution, and liquid B was methanol • Flow rate: 1.0 mL/min • Elution time: 0-4.0 min, the eluent was as follows: […]

Chain of FGFR1 (P11362 478-767): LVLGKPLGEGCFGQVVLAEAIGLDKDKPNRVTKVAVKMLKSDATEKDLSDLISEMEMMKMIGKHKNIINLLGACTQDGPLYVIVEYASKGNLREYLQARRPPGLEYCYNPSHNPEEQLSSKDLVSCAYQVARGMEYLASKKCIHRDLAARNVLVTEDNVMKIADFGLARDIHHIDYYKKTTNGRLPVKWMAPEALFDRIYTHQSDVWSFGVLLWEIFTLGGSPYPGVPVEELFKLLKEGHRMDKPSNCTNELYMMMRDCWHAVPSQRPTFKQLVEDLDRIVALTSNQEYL

Row | Compound | IC50 [1] [nM] | IC50 [2] [nM] | IC50 [3] [nM] | IC50 [4] [nM] | IC50 [5] [nM] | AUC(0-t) ([6]; male, Sprague-Dawley (SD), rat, po, read-out: Area under the curve AUC0-t) [ng·h/mL] | AUC(0-inf) ([6]; male, Sprague-Dawley (SD), rat, po, read-out: Area under the curve AUC0-∞) [ng·h/mL] | half-life ([6]; male, Sprague-Dawley (SD), rat, po, read-out: Half-life t1/2 (converted)) [min] | MRT ([6]; male, Sprague-Dawley (SD), rat, po, read-out: Mean residence time MRT) [h] | Cmax ([6]; male, Sprague-Dawley (SD), rat, po, read-out: Plasma concentration Cmax) [ng/mL] | Time to peak tmax ([6]; p.o.) [h]
1 | C=CC(=O)N1CC[C@H](n2nc(C#Cc3cc4ncn(CC)c4cc3F)c3c(N)ncc(C(C)=O)c32)C1 [Example 24, (S)-1-(3-(7-acetyl-4-amino-3-((1-ethyl-6-fluoro-1H-benzo[d]imidazol-5-yl)ethynyl)-1H-pyrazolo[4,3-c]pyridin-1-yl)pyrrolidin-1-yl)prop-2-en-1-one] | 3.6 | 0.4 | 0.7 | 0.8 | 2.09 | – | – | – | – | – | –
2 | C=CC(=O)N1CC[C@H](n2nc(C#Cc3ccc4cn(C)nc4c3)c3c(N)ncc(C(=O)C4CC4)c32)C1 [Example 84, (S)-1-(3-(4-amino-7-(cyclopropanecarbonyl)-3-((2-methyl-2H-indazol-6-yl)ethynyl)-1H-pyrazolo[4,3-c]pyridin-1-yl)pyrrolidin-1-yl)prop-2-en-1-one] | 1 | 0.3 | 0.5 | 0.1 | 1.04 | – | – | – | – | – | –
3 | C=CC(=O)N1CC[C@H](n2nc(C#Cc3ccn4ccnc4c3)c3c(N)ncc(C(C)=O)c32)C1 [Example 77, (S)-1-(3-(7-acetyl-4-amino-3-(imidazo[1,2-a]pyridine-7-ethynylene)-1H-pyrazolo[4,3-c]pyridin-1-yl)pyrrolidine-1-methyl)prop-2-en-1-one] | – | 1.4 | 1.8 | 2.9 | 0.92 | – | – | – | – | – | –
4 | C=CC(=O)N1CC[C@H](n2nc(C#Cc3cc4ncn(C5CC5)c4cc3F)c3c(N)ncc(C(C)=O)c32)C1 [Example 7, (S)-1-(3-(7-acetyl-4-amino-3-((1-cyclopropyl-6-fluoro-1H-benzo[d]imidazol-5-yl)ethynyl)-1H-pyrazolo[4,3-c]pyridin-1-yl)pyrrolidin-1-yl)prop-2-en-1-one] | 1.3 | 0.3 | 1 | 0.9 | 1.26 | – | – | – | – | – | –
5 | C=CC(=O)N1CC[C@H](n2nc(C#Cc3ccc4cn(C)nc4c3)c3c(N)ncc(C(=O)CC)c32)C1 [Example 83, (S)-1-(3-(4-amino-3-((2-methyl-2H-indazol-6-yl)alkynyl)-7-propionyl-1H-pyrazolo[4,3-c]pyridin-1-yl)pyrrolidine-1-methyl)prop-2-en-1-one] | 1.7 | 0.3 | 0.3 | 0.7 | 0.82 | – | – | – | – | – | –
6 | C=CC(=O)N1CC[C@H](n2nc(C#Cc3ccc4csnc4c3)c3c(N)ncc(C(=O)C4CC4)c32)C1 [Example 91, (S)-1-(3-(4-amino-3-(benzo[c]isothiazole-6-ethynylene)-7-(cyclopropanecarbonyl)-1H-pyrazolo[4,3-c]pyridin-1-yl)pyrrolidine-1-methyl)prop-2-en-1-one] | 3.9 | 1.1 | 1 | 0.8 | 0.97 | – | – | – | – | – | –
7 | C=CC(=O)N1CC[C@H](n2nc(C#Cc3ccc4csnc4c3)c3c(N)ncc(C(C)=O)c32)C1 [Example 89, (S)-1-(3-(7-acetyl-4-amino-3-(benzo[c]isothiazole-6-ethynylene)-1H-pyrazolo[4,3-c]pyridin-1-yl)pyrrolidine-1-methyl)prop-2-en-1-one] | 2.7 | 0.7 | 0.4 | 1.6 | 0.94 | – | – | – | – | – | –
8 | C=CC(=O)N1CC[C@H](n2nc(C#Cc3ccn4ccnc4c3)c3c(N)ncc(C(=O)C4CC4)c32)C1 [Example 79, (S)-1-(3-(4-amino-7-(cyclopropanecarbonyl)-3-(imidazo[1,2-a]pyridine-7-ethynylene)-1H-pyrazolo[4,3-c]pyridin-1-yl)pyrrolidine-1-methyl)prop-2-en-1-one] | 4.5 | 0.4 | 0.7 | 1.1 | 1.2 | – | – | – | – | – | –
9 | C=CC(=O)N1CC[C@H](n2nc(C#Cc3cc4ncn(CC)c4cc3F)c3c(N)ncc(C(=O)CC)c32)C1 [Example 60, (S)-1-(3-(4-amino-3-((1-ethyl-6-fluoro-1H-benzo[d]imidazol-5-yl)ethynyl)-7-propionyl-1H-pyrazolo[4,3-c]pyridin-1-yl)pyrrolidin-1-yl)prop-2-en-1-one] | 4.7 | 0.4 | 0.9 | 1.7 | 2.19 | – | – | – | – | – | –
10 | C=CC(=O)N1CC[C@H](n2nc(C#Cc3cc4ncn(C5CC5)c4cc3Cl)c3c(N)ncc(C(=O)CC)c32)C1 [Example 45, (S)-1-(3-(4-amino-3-((6-chloro-1-cyclopropyl-1H-benzo[d]imidazol-5-yl)ethynyl)-7-propionyl-1H-pyrazolo[4,3-c]pyridin-1-yl)pyrrolidin-1-yl)prop-2-en-1-one] | – | 0.7 | – | 0.6 | 1.84 | 1440 | 1460 | 258 | 4.59 | 290 | 2
11 | C=CC(=O)N1CC[C@H](n2nc(C#Cc3ccc4csnc4c3)c3c(N)ncc(C(=O)CC)c32)C1 [Example 90, (S)-1-(3-(4-amino-3-(benzo[c]isothiazole-6-ethynylene)-7-propionyl-1H-pyrazolo[4,3-c]pyridin-1-yl)pyrrolidine-1-methyl)prop-2-en-1-one] | – | 3.1 | 1.6 | 3.2 | 0.98 | – | – | – | – | – | –
12 | C=CC(=O)N1CC[C@H](n2nc(C#Cc3cc4ncn(C)c4cc3F)c3c(N)ncc(C(C)=O)c32)C1 [Example 8, (S)-1-(3-(7-acetyl-4-amino-3-((6-fluoro-1-methyl-1H-benzo[d]imidazol-5-yl)ethynyl)-1H-pyrazolo[4,3-c]pyridin-1-yl)pyrrolidin-1-yl)prop-2-en-1-one] | – | – | – | 0.4 | 1.74 | – | – | – | – | – | –
13 | C=CC(=O)N1CC[C@H](n2nc(C#Cc3cc4ncn(C)c4cc3F)c3c(N)ncc(-c4nccs4)c32)C1 [Example 9, (S)-1-(3-(4-amino-3-((6-fluoro-1-methyl-1H-benzo[d]imidazol-5-yl)ethynyl)-7-(thiazol-2-yl)-1H-pyrazolo[4,3-c]pyridin-1-yl)pyrrolidin-1-yl)prop-2-en-1-one] | – | 1 | 2.2 | 1.6 | 1.82 | – | – | – | – | – | –
